Legend:
[1] = test system: Carrageenin induced edema; test: Anti-inflammatory Activity (Carrageenin induced edema test); assay type: in vivo, rat (male Sprague Dawley); settings: for anti-inflammatory versus antinociceptive action: conclusion in words from Examples 6 and 7; for % Edema Inhibition, 1 hour / % Edema Inhibition, 3 hours / % Edema Inhibition, 5 hours: oral, 30 min before carrageenin, dose mg/kg: ASA 100, XAA 120, XAA ester 196 (eq. 120 XAA), TAA 60, TAA ester 84.5 (eq. 60 TAA); for % Edema Inhibition, 1 hour: 1 hour after carrageenin; for % Edema Inhibition, 3 hours: 3 hours after carrageenin; for % Edema Inhibition, 5 hours: 5 hours after carrageenin
Procedure: Anti-inflammatory Activity (Carrageenin induced edema test)
Fifteen to twenty male rats of Sprague Dawley strain weighing 150-200 g, were employed for each compound tested. 0.1 ml of 1% carrageenin saline suspension was injected into the subplantar region of the right hind-paw. The test compounds were orally administered 30 minutes prior to the injection of carrageenin and the foot volume was determined 1,3 and 5 hours after the injection of carrageenin. The percent swelling in the foot was obtained by comparing the volume before and after the injection of carrageenin, and the rate of inhibition in the treated animals was calculated.

[2] = test system: response threshold on applying pressure to the tail; test: Analgesic Activity: Tail pressure test; assay type: in vivo, mouse (male Rockland); settings: oral; 15 and 60 min after administration; relative potency (control 0, ASA 1.00); dose mg/kg: ASA 100, XAA 50, XAA ester 74 (eq. 50 XAA), TAA 50, TAA ester 82 (eq. 50 TAA)
Procedure: Tail pressure test: Ten male mice of Rockland strain weighing 20-25 g were used for each compound tested. The response threshold on applying pressure to the tail was determined with an analgesy meter at 15 and 60 minutes after oral administration of the test compound. The pressure at which a struggle was elicited was read.

gastric epithelium = test: Influence on the gastro-intestinal tract (ulceration, pylorus-ligated, method of Shay et al.); assay type: in vivo, rat (male Sprague Dawley); settings: oral, dose mg/kg: phenylbutazone 75, ASA 100, XAA 120, XAA ester 196, TAA 60, TAA ester 84.5; for Increase (of ulceration evaluation): increase over control (distilled water, 3.0), 1 hour; for Evaluation (ulceration of the gastric epithelium): 1 hour after administration, score 0=no hemorrhage sites to 6=perforated ulcer, control 3.0
Procedure: Influence on the gastro-intestinal tract
Ten male rats of Sprague Dawley strain, weighing 200-300 g were used for each compound tested. According to the method of Shay et al. (Shay, H., Komapov, S. A., Feb. S. S., Meranir, D., Gruenstein, M., Siplet, H. Gastroenterology 5, 43, 1945), under anesthesia, the pylorus was ligated and 4 hours later test compounds were orally administered. The animal was sacrificed 1 hour after compound administration. The stomach was removed and examined for macroscopic damage. The ulceration of the gastric epithelium was evaluated by the following evaluation: 0=no hemorrhage sites; 1=some isolated hemorrhagic sites; 2=redness of the gastric epithelium; 3=1 to 5 small ulcers with a diameter smaller than 3 mm; 4=many small ulcers; 5=ulcers-greater than 3 mm; 6=perforated ulcer.

[3] = test system: pain threshold for the inflamed feet (carrageenin); test: Analgesic Activity: Randall-Selitto's method; assay type: in vivo, mouse (male Rockland); settings: oral, 30 min before carrageenin; hourly for 3 hours; relative potency (control 0); dose mg/kg: ASA 100, XAA 50, XAA ester 74 (eq. 50 XAA), TAA 50, TAA ester 82 (eq. 50 TAA)
Procedure: Randall-Selitto's method: Ten male mice of Rockland strain weighing 25 g were used for each compound tested. 0.1 ml of 1% carrageenin saline suspension was injected into the subplantar region of the right foot. The test compounds were orally administered 30 minutes before the injection. At hourly intervals for 3 hours after the carrageenin injection, the pain threshold for the inflammed feet determining was measured the amount of pressure with an analgesy meter.

Structure (SMILES) | anti-inflammatory versus antinociceptive action [1] | % Edema Inhibition, 1 hour [1] [%] | % Edema Inhibition, 3 hours [1] [%] | % Edema Inhibition, 5 hours [1] [%] | Relative strength, Tail pressure test [2] | Increase (of ulceration evaluation) (gastric epithelium) | Evaluation (ulceration of the gastric epithelium) (gastric epithelium) | Relative strength, Randall-Selitto test [3]
CC(C)(C)C(=O)OCOC(=O)c1ccccc1Nc1cccc(C(F)(F)F)c1 [Pivaloyloxymethyl N(3'-trifluorotolyl)-anthranylate] | act as anti-inflammatory agents more than as antinociceptive agents | 40.4 | 40.7 | 32.4 | 1.02 | 0.6 | 3.6 | 8.7
O=C(O)c1ccccc1Nc1cccc(C(F)(F)F)c1 [N-(3'-trifluorotolyl)-anthranylic acid] | – | 24.3 | 29.3 | 28.3 | 0.5 | 1.9 | 4.9 | 5.3
Cc1cccc(Nc2ccccc2C(=O)O)c1C [N-(2',3'-xylyl) anthranylic acid (XAA), N-(2',3'-xylyl) anthranylic acid] | – | 19.32 | 24.7 | 23.4 | 0.2 | 1.2 | 4.2 | 1.04
Cc1cccc(Nc2ccccc2C(=O)OCOC(=O)C(C)(C)C)c1C [Pivaloyloxymethyl N-(2',3'-xylyl)anthranylate] | act as anti-inflammatory agents more than as antinociceptive agents | 33.3 | 36.4 | 31.3 | 0.48 | 0.4 | 3.4 | 1.74
CC(=O)Oc1ccccc1C(=O)O [Acetylsalicylic acid (ASA), Acetylsalicylic acid] | – | 3.8 | 24.8 | 25.3 | 1.00 | 1.1 | 4.1 | 1.05
CCCCC1C(=O)N(c2ccccc2)N(c2ccccc2)C1=O [Phenylbutazone] | – | – | – | – | – | 2.5 | 5.5 | –

Source: patent publication US4277496A, “Methods of treating mammals suffering from inflammation and pain” (Laboratorios Bago S.A., priority 1980, dated 1981)
